Assay results: patent publication US20120295907A1, “INSECTICIDAL COMPOUNDS” (SYNGENTA CROP PROTECTION, LLC, priority 2009, published 2012)

What was measured:
Format in all cases: in vivo
Myzus persicae = Myzus persicae (Green Peach Aphid) sunflower leaf disc spray test; settings: foliar, 144 h, 200 ppm spray on sunflower leaf discs, aphid population of mixed ages, 6 DAT, mortality
Diabrotica balteata = Diabrotica balteata (Corn Root Worm) artificial diet MTP test; settings: 120 h, 200 ppm (concentration in well 18 ppm), L2 larvae, 5 days, larval mortality, growth regulation
Plutella xylostella = Plutella xylostella (Diamond Back Moth) artificial diet MTP test; settings: 144 h, 200 ppm (concentration in well 18 ppm), L2 larvae, 6 days, larval mortality, growth regulation
Spodoptera littoralis = Spodoptera littoralis (Egyptian Cotton Leafworm) cotton leaf disc spray test; settings: foliar, 72 h, 200 ppm spray on cotton leaf discs, L1 larvae, mortality, feeding behavior, growth regulation 3 DAT
Thrips tabaci = Thrips tabaci (Onion Thrips) sunflower leaf disc spray test; settings: foliar, 168 h, 200 ppm spray on sunflower leaf discs, population of mixed ages, 7 days, mortality
Heliothis virescens = Heliothis virescens (Tobacco Budworm) egg test on artificial diet; settings: 96 h, 200 ppm (concentration in well 18 ppm), eggs 0-24 h old on artificial diet, 4 days, egg mortality, larval mortality, growth regulation
Tetranychus urticae = Tetranychus urticae (Two-Spotted Spider Mite) bean leaf disc spray test; settings: foliar, 192 h, 200 ppm spray on bean leaf discs, mite populations of mixed ages, 8 days, egg, larval and adult mortality, read-out: control of Tetranychus urticae

Measured: pest or weed control at 200 ppm

COc1c(NC(=O)c2cccnc2)cccc1C(=O)Nc1c(Cl)cc(C(F)(C(F)(F)F)C(F)(F)C(F)(F)F)cc1Br (stereo not shown) [B37]
not listed: Heliothis virescens | Tetranychus urticae
≥ 80%: all other assays above

COc1c(NC(=O)c2cccs2)cccc1C(=O)Nc1c(Cl)cc(C(F)(C(F)(F)F)C(F)(F)C(F)(F)F)cc1Br (stereo not shown) [B44]
not listed: Tetranychus urticae
≥ 80%: all other assays above

COc1c(NC(=O)c2cccnc2SC)cccc1C(=O)Nc1c(Cl)cc(C(F)(C(F)(F)F)C(F)(F)C(F)(F)F)cc1Br (stereo not shown) [B45]
not listed: Tetranychus urticae
≥ 80%: all other assays above

COc1cc(C(=O)Nc2cccc(C(=O)Nc3c(Cl)cc(C(F)(C(F)(F)F)C(F)(F)C(F)(F)F)cc3Br)c2OC)on1 (stereo not shown) [B89]
not listed: Tetranychus urticae
≥ 80%: all other assays above

COc1c(NC(=O)c2ccsc2)cccc1C(=O)Nc1c(Cl)cc(C(F)(C(F)(F)F)C(F)(F)C(F)(F)F)cc1Br (stereo not shown) [B124]
not listed: Diabrotica balteata | Tetranychus urticae
≥ 80%: all other assays above

COc1c(NC(=O)c2ccc(C)s2)cccc1C(=O)Nc1c(Cl)cc(C(F)(C(F)(F)F)C(F)(F)C(F)(F)F)cc1Br (stereo not shown) [B137]
not listed: Tetranychus urticae
≥ 80%: all other assays above

COc1c(NC(=O)c2ccc(F)cc2Cl)cccc1C(=O)Nc1c(Cl)cc(C(F)(C(F)(F)F)C(F)(F)C(F)(F)F)cc1Cl (stereo not shown) [C1, N-[2,6-dichloro-4-(1,2,2,3,3,3-hexafluoro-1-trifluoromethylpropyl)phenyl]-3-(4-fluoro-2-chlorobenzoylamino)-2-methoxybenzamide]
not listed: Tetranychus urticae
≥ 80%: all other assays above

COc1c(NC(=O)c2ccccc2)cccc1C(=O)Nc1c(Cl)cc(C(F)(C(F)(F)F)C(F)(F)C(F)(F)F)cc1Cl (stereo not shown) [C18]
not listed: Diabrotica balteata | Tetranychus urticae
≥ 80%: all other assays above

COc1c(NC(=O)c2ccccc2F)cccc1C(=O)Nc1c(Cl)cc(C(F)(C(F)(F)F)C(F)(F)F)cc1Cl [E1]
not listed: Plutella xylostella | Tetranychus urticae
≥ 80%: all other assays above

COc1c(NC(=O)c2ccccc2C)cccc1C(=O)Nc1c(Cl)cc(C(F)(C(F)(F)F)C(F)(F)F)cc1Cl [E2]
not listed: Plutella xylostella | Tetranychus urticae
≥ 80%: all other assays above

COc1c(NC(=O)c2ccc(C)cc2)cccc1C(=O)Nc1c(Cl)cc(C(F)(C(F)(F)F)C(F)(F)F)cc1Cl [E6]
not listed: Tetranychus urticae
≥ 80%: all other assays above

COc1c(NC(=O)c2ccc(OC(F)(F)F)cc2)cccc1C(=O)Nc1c(Cl)cc(C(F)(C(F)(F)F)C(F)(F)F)cc1Cl [E11]
not listed: Tetranychus urticae
≥ 80%: all other assays above

COc1c(NC(=O)c2ccccc2)cccc1C(=O)Nc1c(Cl)cc(C(F)(C(F)(F)F)C(F)(F)F)cc1Cl [E16]
not listed: Tetranychus urticae
≥ 80%: all other assays above

COc1c(NC(=O)c2snnc2C)cccc1C(=O)Nc1c(Cl)cc(C(F)(C(F)(F)F)C(F)(F)F)cc1Cl [E20]
not listed: Myzus persicae
≥ 80%: all other assays above

COc1c(NC(=O)c2cccc(F)c2F)cccc1C(=O)Nc1c(Cl)cc(C(F)(C(F)(F)F)C(F)(F)F)cc1Cl [E21]
not listed: Tetranychus urticae
≥ 80%: all other assays above

COc1c(NC(=O)c2cccc(C#N)c2)cccc1C(=O)Nc1c(C)cc(C(F)(C(F)(F)F)C(F)(F)C(F)(F)F)cc1C (stereo not shown) [F21]
not listed: Myzus persicae
≥ 80%: all other assays above

COc1c(NC(=O)c2ccc([N+](=O)[O-])cc2)cccc1C(=O)Nc1c(C)cc(C(F)(C(F)(F)F)C(F)(F)C(F)(F)F)cc1C (stereo not shown) [F29]
not listed: Myzus persicae
≥ 80%: all other assays above

COCc1cc(C(F)(C(F)(F)F)C(F)(F)C(F)(F)F)cc(Cl)c1NC(=O)c1cccc(NC(=O)c2ccc(C#N)cc2C)c1OC (stereo not shown) [H1]
≥ 80%: Myzus persicae | Plutella xylostella | Heliothis virescens

COCc1cc(C(F)(C(F)(F)F)C(F)(F)C(F)(F)F)cc(Cl)c1NC(=O)c1cccc(NC(=O)c2ccc(F)cc2Cl)c1OC (stereo not shown) [H25]
not listed: Spodoptera littoralis | Tetranychus urticae
≥ 80%: all other assays above

COCc1cc(C(F)(C(F)(F)F)C(F)(F)C(F)(F)F)cc(Br)c1NC(=O)c1cccc(NC(=O)c2c(F)cc(F)cc2F)c1OC (stereo not shown) [I2]
not listed: Spodoptera littoralis | Tetranychus urticae
≥ 80%: all other assays above

COCc1cc(C(F)(C(F)(F)F)C(F)(F)C(F)(F)F)cc(Br)c1NC(=O)c1cccc(NC(=O)c2ccc(F)cc2Cl)c1OC (stereo not shown) [I25]
not listed: Spodoptera littoralis | Tetranychus urticae
≥ 80%: all other assays above

COc1c(NC(=O)c2c(F)cc(F)cc2F)cccc1C(=O)Nc1c(C)cc(C(F)(C(F)(F)F)C(F)(F)F)cc1C [K1]
not listed: Myzus persicae
≥ 80%: all other assays above
